Reference: US20250268900A1, “COMBINATION THERAPY USING A SUBSTITUTED PYRIMIDIN-4(3H)-ONE AND NIVOLUMAB AS WELL AS ITS USE IN THE TREATMENT OF CANCER” (BRISTOL-MYERS SQUIBB COMPANY, priority 2022, published 2025)

Columns and labels:
IFNγ = IFNγ concentration in PBMC supernatants 5 days post CEFT stimulation, TR-FRET; assay type: cell-based; conditions: 5 days after CEFT stimulation; data not shown
Procedure: (§1) A study was performed to evaluate the effect of the SHP2 inhibitor Compound (10b) alone and in combination with αPD-L1 on T cell cytokine production and killing potential in response to antigenic stimulation. PBMCs from four healthy donors were stimulated with a CEFT peptide pool and treated with vehicle, isotype control, αPD-L1, a titration of Compound (10b), or a titration of Compound (10b) with the addition of either isotype control or αPD-L1. After the initial CEFT stimulation, the cultures were rested and cytokines were added to expand the number of responding CD8+ T cells. Cells were then restimulated with the CEFT peptide pool for 24 hours, and the frequency of CD107a+ cells as a percentage of total CD8+ T cells was assessed by flow cytometry. In addition, at 5 days post stimulation, the supernatents were harvested and the concentration of IFNγ was measured by TR-FRET. FIG. 1A-FIG. 1B show results from this study.

CD8+ T cells = experiment: CD8+ activation in PBMCs: CD107a+ cells as a percentage of total CD8+ T cells after CEFT peptide pool stimulation, flow cytometry; assay type: cell-based; conditions: PBMCs restimulated with CEFT peptide pool 24 hours, titration of Compound (10b) alone or with αPD-L1
Procedure: as §1

CT-26 KRAS D12C KI tumor = conditions: CT-26 KRAS D12C KI bearing Balb/c mice, n = 10
Description: Animal Receipt and Housing. For the CT-26 CRISPR knock-in KRAS D12C study, protocols and procedures involving the care and use of animals were reviewed and approved by the Charles River Accelerator and Development Lab (CRADL) Institutional Animal Care and Use Committee (IACUC) prior to execution. The animal care and use program has been fully accredited by the Association for Assessment and Accreditation of Laboratory Animal Care International (AAALAC). Balb/c female mice (Envigo; Inotiv Inc.) were ordered, aged six to eight weeks at receipt, and identified by ear notch. Animals were acclimated for a period of eleven days prior to tumor inoculation. For the duration of the acclimation period and throughout the study, mice were group-housed up to five animals per cage in disposable polycarbonate IVC cages (Innovive; San Diego, CA) which consisted of a layer of Alpha-Dri bedding (Sheppard Specialty Papers, Inc., Kalamazoo, MI), a certified enrichment block and diamond-twist, and a certified polycarbonate housing device. Mice were presented with rodent diet pellet and irradiated reverse-osmosis Aquavive® drinking water (Innovive; San Diego, CA), ad libitum. The vivarium temperature was maintained between 20° C. through 26° C. and an environmental humidity between 30% through 70%. The interior room lighting was cycled twelve hours on and twelve hours off.
Tumor Cell Line Culture and Inoculation. […] Cells were screened and confirmed negative for mouse pathogens (IDEXX) and maintained in-vitro at 37° C., 5% CO2 atmosphere in 10% (v/v) fetal bovine serum (FBS, Invitrogen) and 90% (v/v) Roswell Park Memorial Institute (RPMI) 1640 Medium (Gibco) on T150 flasks. For implantation, cells were harvested with 0.25% Trypsin-EDTA (Gibco), washed in DPBS (Gibco), counted and viability determined with trypan blue exclusion using Vi-Cell XR (Beckman Coulter), then brought up in a 1:1 ratio of DPBS:Matrigel to a final concentration of 3×10^6 cells/mL. […]

Cc1c(N2CCC3(CC2)CO[C@@H](C)[C@H]3N)nc(C)n(-c2cccc(Cl)c2Cl)c1=O (atropisomer, axis not shown; (Ra)) [Compound (10b), 6-((3S,4S)-4-amino-3-methyl-2-oxa-8-azaspiro[4.5]decan-8-yl)-3-(Ra)-(2,3-dichlorophenyl)-2,5-dimethyl-4(3H)-pyrimidinone]
IFNγ levels (IFNγ): inconsistent across donors
CD107a+CD8+ T cells (frequency of CD107a+ cells as a percentage of total CD8+ T cells) (CD8+ T cells; donor 1): clear Compound (10b) dose-dependent effect
CD107a+CD8+ T cells (frequency of CD107a+ cells as a percentage of total CD8+ T cells) (CD8+ T cells; donor 2): dose dependent decrease
CD107a+CD8+ T cells (frequency of CD107a+ cells as a percentage of total CD8+ T cells) (CD8+ T cells; donor 3): some Compound (10b) effect
CD107a+CD8+ T cells (frequency of CD107a+ cells as a percentage of total CD8+ T cells) (CD8+ T cells; donor 4): no Compound (10b) effect
Median Progression-Free to Tumor Burden Endpoint (CT-26 KRAS D12C KI tumor; Formula (10b) 100 mg/kg PO QD×35, ANTIBODY A 10 mg/kg IP Q4D×4, endpoint tumor volume >1,500 mm^3): 19 Study Day
Hazard Ratio Treatment/ANTIBODY A (Group 2) (CT-26 KRAS D12C KI tumor; Mantel-Haenszel hazard ratio vs ANTIBODY A alone, progression-free to tumor burden endpoint (tumor volume >1,500 mm^3)): 1.230
Hazard Ratio Treatment/Control (Group 1) (CT-26 KRAS D12C KI tumor; Mantel-Haenszel hazard ratio vs Vehicle Control + MOPC-21 Isotype, progression-free to tumor burden endpoint (tumor volume >1,500 mm^3)): 0.261
